# Assay results taken from patent US10246488B2, “Use of inhibitory peptides for the treatment of inflammatory diseases” (Yeda Research and Development Co. Ltd., priority 2013, dated 2019).
# Ends that are not written are not given here. * marks the point of attachment. Myristoyl = CCCCCCCCCCCCCC(=O)*
# Experiments:
# JNK1/2 and p38α/β = experiment: Immunofluorescence of stimulated nuclear translocation of JNK1/2 and p38α/β in HeLa cells; format: cell-based; conditions: for stimuli-dependent nuclear translocation of JNK1/2 and p38α/β: HeLa cells, peptide 10 μM applied prior to stimulation, Anisomycin 0.5 μg/ml
# Experimental: FIGS. 2A-2C illustrate that Imp3, 7 and 9 are required for JNK and p38 translocation and induced transcription. (A) Si RNAs of Imp3, 7, 9, but not Imp5, inhibit the stimulated JNK and p38 nuclear translocation. HeLa cells were grown on cover slides to 30% confluence. si RNAs of the indicated Imps and si Control supplied by the company (si Scr, negative control) were then transfected to the cells using Dharmafect according to the manufacturer's instructions. Forty eight hrs after transfection, the cells were serum starved, then either stimulated with Anisomycin (0.5 μg/ml, 15 min), or left untreated (NT) as indicated. The cells were then fixed, stained using the indicated (left) anti MAPK Abs and visualized using a fluorescent microscope. (B) Quantification of JNKs/p38s nuclear localization prior and upon stimulation. Data shown represents mean±S.E. The significance of Imp3 vs. Imp7/Imp9 (*) was p<0.0003. The significance of stimulated Imp3/7/9 vs Scr was p<0.00001 (C) Si RNA of Imp3, 7, 9 inhibit the activation of downstream transcription factor targets of JNKs/p38s. HeLa cells were transfected with si RNAs of the indicated Imps and si control supplied by the manufacturer (si Scr, negative control) using Dharmafect according to the manufacturer instructions. Forty eight hrs after transfection, the cells were serum starved, and then stimulated with Anisomycin (Anis 0.5 μg/ml) for the indicated times or left untreated (NT). Cell extracts were subjected to a Western blot analysis with anti pJUN, pMEF2A, pATF2, indicated Imps, and tubulin Abs.
# HeLa cells were grown on slides to 70% confluence, serum starved (0.1% FBS, 16 hrs), and then either incubated with the inhibitory peptide (Peptide, 10 μM) or scrambled peptide (Scr peptide, 10 μM), cells were then treat with Anisomycin (Anis, 0.5 μg/ml) or left untreated (NT). Cells were fixed, and stained with anti JNK1, JNK2, p38α or p38β Abs as indicated, and DAPI to detect nuclei. The slides were visualized using a fluorescent microscope. […] HeLa cells were grown to 70% confluence, serum starved (0.1% FBS, 16 hrs), and then either incubated with the inhibitory peptide (Peptide, 10 μM), scrambled peptide (Scr peptide, 10 μM), or DMSO, followed by treatment with Anisomycin (Anis, 0.5 μg/ml) or mock control (NT). Cell extracts were then subjected to Co-IP with anti JNK1, JNK2, p38α, p38β Abs. The interacting Imp7 was detected by Western blot with the indicated anti Imps Abs. Amount of IPed MAPKs was detected by the anti JNK1, JNK2, p38α and p38β Abs as indicated. […]
# FIGS. 19A-19C illustrate that myristoylated peptides inhibit the stimulation dependent nuclear translocation of p38. […] The nuclei were detected using DAPI and slides were visualized using a spinning disc confocal microscope (Zeiss, ×100 magnification). […]
# [1] = target: T1, interaction of JNK1/2 and p38α/β with Imp7 (Homo sapiens, UniProt O95373); experiment: Co-immunoprecipitation of MAPKs with importins from extracts of treated HeLa cells; format: cell-based; conditions: for interaction of p38 with Imp7 (CoIP): HeLa cells pre-incubated with modified peptide 2 hours, anisomycin 0.5 μg/ml 15 min; for Imp7/9 interactions of the MAPKs examined (JNK1/2 and p38α/β), Co-IP: HeLa cells, peptide 10 μM applied prior to stimulation, Anisomycin 0.5 μg/ml
# T1 construct: endogenous in cells; host or cells: HeLa
# Experimental: HeLa cells were grown on slides to 70% confluence, serum starved (0.1% FBS, 16 hrs), and then either incubated with the inhibitory peptide (Peptide, 10 μM) or scrambled peptide (Scr peptide, 10 μM), cells were then treat with Anisomycin (Anis, 0.5 μg/ml) or left untreated (NT). Cells were fixed, and stained with anti JNK1, JNK2, p38α or p38β Abs as indicated, and DAPI to detect nuclei. The slides were visualized using a fluorescent microscope. […] HeLa cells were grown to 70% confluence, serum starved (0.1% FBS, 16 hrs), and then either incubated with the inhibitory peptide (Peptide, 10 μM), scrambled peptide (Scr peptide, 10 μM), or DMSO, followed by treatment with Anisomycin (Anis, 0.5 μg/ml) or mock control (NT). Cell extracts were then subjected to Co-IP with anti JNK1, JNK2, p38α, p38β Abs. The interacting Imp7 was detected by Western blot with the indicated anti Imps Abs. Amount of IPed MAPKs was detected by the anti JNK1, JNK2, p38α and p38β Abs as indicated.
# (A) Myristiolated peptide was modified (replacement of 3 residues to alanin) Myr-KPERYQNLSPVGSGA—SEQ ID NO: 9; Myr-KPERYQNLSPVAAAA—SEQ ID NO: 10. (B) Hela cells were pre-incubated with modified peptide (2 hours) then either stimulated with anisomycin (Anis, 0.5 μg/ml, 15 min) or left untreated. Cell extracts were then subjected to CoIP with anti p38a . The interacting Imp7 or IPed p38 were detected by Western blot with indicated Abs.
# Co-Immunoprecipitation: HeLa cells were grown to subconfluency, serum-starved (0.1% FBS for 16 h) and then stimulated or treated with other drugs. Cell extracts were produced as previously described and incubated for 2 hours (4° C., with rotation) with A/G-agarose beads (Santa Cruz Biotechnology) pre-linked with specific Abs (1 hrs, 23° C.). The bound A/G beads were washed three times with ice-cold washing buffer. The IPed beads were then resuspended with 1.5× sample buffer and boiled; the resolved proteins were analyzed by Western blotting with the indicated Abs.
# CoIP: Cell extracts were produced and incubated for 2 hr (4° C., with rotation) with A/G-agarose beads pre-linked with specific Abs (1 hr, 23° C.). The bound A/G beads were washed, resuspended (1.5× sample buffer), boiled and subjected to Western blotting.
# MAPKs = experiment: Western blot of stimulation-dependent activation of MAPKs in HeLa cells; format: cell-based; conditions: HeLa cells pre-incubated with peptide, Anisomycin 0.5 μg/ml or TPA 250 nM
# Experimental: HeLa cells were grown to 70% confluence, serum starved and pre-incubated with either new peptide (NP), peptide or scrambled peptide and then either stimulated with Anisomycin (Anis 0.5 μg/ml), TPA (250 nM) or left untreated (NT). Cell extracts were produced and subjected to Western blot analysis with the indicated Abs.
# DSS-induced Colitis = experiment: DSS-induced colitis model; format: in vivo; conditions: male C57BL mice, 15 mg/Kilo I.V every 48 hours, DSS 1.25% in drinking water, 7 days, compared with control peptide
# Experimental: FIGS. 17A-17C illustrate the use of inhibitory peptide as a potential therapeutic agent in colitis model. 21 male C57BL mice treated (I.V every 48 hours) with either peptide (15 mg/Kilo), scramble peptide (15 mg/Kilo) or DMSO (2%). Colitis was induced using DSS (1.25% in drinking water) and mice were sacrificed 7 days post induction. (A-C). Colitis was evaluated using endoscopic imaging and scored for the number of lesions in the colon and weight of mice.
# In vivo experiment: 21 male C57BL mice were weighed then injected (I.V) with either peptide (15 mg/Kilo), scramble peptide (15 mg/Kilo) or DMSO (2%). Twenty-four hours post injection drinking water of the mice was replaced with water containing DSS (1.25%), peptide, scramble peptide or DMSO were injected every forty-eight hours. Mice were sacrificed seven days post replacement of drinking water, and colitis was assessed using endoscopy and weight of mice.
# [2] = listed as 14 amino acid myristoylated peptide
# T1 sequence (O95373 whole entry): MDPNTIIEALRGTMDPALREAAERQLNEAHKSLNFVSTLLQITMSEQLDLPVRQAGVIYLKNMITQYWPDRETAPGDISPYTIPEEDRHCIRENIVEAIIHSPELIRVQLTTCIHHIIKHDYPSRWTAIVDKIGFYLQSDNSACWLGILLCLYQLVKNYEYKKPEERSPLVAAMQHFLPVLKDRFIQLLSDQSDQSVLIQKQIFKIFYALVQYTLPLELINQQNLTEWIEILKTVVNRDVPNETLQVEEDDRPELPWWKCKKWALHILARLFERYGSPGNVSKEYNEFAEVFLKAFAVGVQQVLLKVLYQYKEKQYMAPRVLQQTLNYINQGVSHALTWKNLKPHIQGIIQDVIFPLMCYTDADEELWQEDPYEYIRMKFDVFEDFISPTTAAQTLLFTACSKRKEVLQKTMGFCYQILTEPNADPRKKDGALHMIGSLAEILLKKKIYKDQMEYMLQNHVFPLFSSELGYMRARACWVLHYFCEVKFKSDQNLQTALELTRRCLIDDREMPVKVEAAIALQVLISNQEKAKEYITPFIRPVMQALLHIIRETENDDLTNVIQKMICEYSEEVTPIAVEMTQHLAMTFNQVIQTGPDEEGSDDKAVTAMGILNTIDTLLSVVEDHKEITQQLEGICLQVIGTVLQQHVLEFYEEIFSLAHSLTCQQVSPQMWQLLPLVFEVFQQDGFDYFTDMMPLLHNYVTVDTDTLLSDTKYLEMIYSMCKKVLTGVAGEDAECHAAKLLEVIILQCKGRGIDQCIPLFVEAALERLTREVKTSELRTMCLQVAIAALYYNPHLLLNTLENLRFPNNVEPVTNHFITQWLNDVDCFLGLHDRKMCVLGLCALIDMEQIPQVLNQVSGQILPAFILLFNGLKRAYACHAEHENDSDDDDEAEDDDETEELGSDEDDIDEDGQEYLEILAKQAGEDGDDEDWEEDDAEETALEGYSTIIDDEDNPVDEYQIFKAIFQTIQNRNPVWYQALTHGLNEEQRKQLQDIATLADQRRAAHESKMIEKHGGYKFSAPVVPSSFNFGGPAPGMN
substance,measurement,setting,value
Myr-KPERYQNLSPVAAAA (Myristoyl-KPERYQNLSPVAAAA) [myristoylated peptide modified by replacement of 3 residues to alanin],stimulation-induced nuclear translocation of JNK and p38 MAPKs,"JNK1/2 and p38α/β; HeLa cells pre-incubated with peptide, Anisomycin 0.5 μg/ml 15 min, spinning disc confocal microscope",prevented
same,interaction of p38 with Imp7 (CoIP),[1],blocks the interaction
same,interaction of p38 with Imp7 (CoIP),[1]; listed as newly designed peptide,inhibited
same,stimulation-dependent activation (kinase activity) of MAPKs,MAPKs,without affecting
Myr-PERYQNLSPVGSGA (Myristoyl-PERYQNLSPVGSGA) [14 amino acid myristoylated peptide based on residues 21-34 of p38α],stimuli-dependent nuclear translocation of JNK1/2 and p38α/β,JNK1/2 and p38α/β,prevented the nuclear translocation
same,stimuli-dependent nuclear translocation of JNK1/2 and p38α/β,JNK1/2 and p38α/β; [2],prevented the nuclear translocation
same,stimuli-dependent nuclear translocation of JNK1/2 and p38α/β,JNK1/2 and p38α/β; listed as inhibitory peptide,inhibits the stimuli-dependent nuclear translocation
same,"Imp7/9 interactions of the MAPKs examined (JNK1/2 and p38α/β), Co-IP",[1],prevented
same,"Imp7/9 interactions of the MAPKs examined (JNK1/2 and p38α/β), Co-IP",[1]; [2],prevented
same,"Imp7/9 interactions of the MAPKs examined (JNK1/2 and p38α/β), Co-IP",[1]; listed as inhibitory peptide,inhibits the interaction
Myr-KPERYQNLSPVGSGA (Myristoyl-KPERYQNLSPVGSGA),DSS-induced Colitis (average weight loss and number of lesions in the colon),DSS-induced Colitis,reduced DSS-induced Colitis
